Source: patent US5270334A, “4-methoxy-5-methyl-pyran-3-ol natural products and derivatives thereof” (E. R. Squibb & Sons, Inc., priority 1992, dated 1993)
Values after ≈ are worked out from the molar mass of the structure shown.

Legend:
Format in all cases: cell-based
Candida parakrusei = test: Anticandidal activity of lanomycin, agar dilution method (Table 5); details: for MIC: 10^4 cfu
Procedure: (§1) MICs were determined by the agar dilution method using a medium composed of tryptone (5 g), malt extract (3 g), glucose (10 g) and yeast extract (3 g) in 1 L distiled water; 10^4 cfu of the test organism was applied to the agar.

Candida tropicalis = test: as above; details: 10^4 cfu
Procedure: as §1

Candida stellatoidea = test: as above; details: Candida albicans, SC2211; Candida stellatoidea SC 2211; 10^4 cfu
Procedure: as §1

Candida guillermondii = test: as above; details: for MIC: 10^4 cfu
Procedure: as §1

Candida pseudotropicalis = test: as above; details: Kluyveromyces marxianus, SC11241; Candida pseudotropicalis SC 11241; 10^4 cfu
Procedure: as §1

Candida krusei = test: as above; details: for MIC: Pichia kudriavzevii, 10^4 cfu
Procedure: as §1

Microsporum canis = test: Activity of lanomycin against filamentous fungi, agar dilution (Table 6); details: SC9237; Microsporum canis SC 9237; 10^3 cfu
Procedure: as §1
(§2) MICs were determined as in Table 5 except that the inoculum was 10^3 cfu.

[1] = test system: Trichophyton mentagrophytes; test: as above; details: SC2637; Trichophyton mentagrophytes SC 2637; 10^3 cfu
Procedure: as §1, §2

Trichophyton rubrum = test: as above; details: SC9199; Trichophyton rubrum SC 9199; 10^3 cfu
Procedure: as §1, §2

Aspergillus fumigatus = test: as above
Procedure: as §1, §2

Epidermophyton floccosum = test: as above; details: SC9185; Epidermophyton floccosum SC 9185; 10^3 cfu
Procedure: as §1, §2

Gram negative bacteria = test: antibacterial activity of lanomycin; details: in words, Table 4
Procedure: (§3) *Minimal inhibitory concentrations were determined by agar dilution assay

Gram positive bacteria = test: antibacterial activity of lanomycin; details: in words, Table 4
Procedure: as §3

dermatophytes = test: antifungal activity of lanomycin; details: in words
Procedure: as §3, §2

[2] = biological target: T1, lanosterol demethylase of Candida albicans (Candida albicans, UniProt P10613); test: inhibition of lanosterol demethylase, radiolabeled metabolic assay (14C-acetate, lanosterol accumulation); details: Candida albicans SC5314, 14C-acetate, 30°
T1 construct: 14C-acetate sterol labelling, TLC
Procedure: The inhibition of lanosterol demethylase was determined by two methods: the spectrophotometric carbon monoxide binding assay of Omura and Sato (J. Biol. Chem. 239:2370-2378, 1964) and by a radiolabeled metabolic assay.
The ability of scopularin and its alcohol to inhibit the lanosterol demethylase of Candida albicans can also be visualized by a metabolic assay. Candida albicans, SC5314, was grown overnight at 30° with shaking in the same medium as that used above. Cells were harvested by centrifugation and resuspended in water to give an optical density of 0.3 at 660 nm. 750 μl of this cell suspension, 300 μl of a medium containing 0.35 g Difco yeast nitrogen base without amino acids, 1 g glucose and distilled water to 10 ml, 100 μl of test material and distilled water were combined to give a final volume of 1.425 ml. This was incubated for 15 minutes at 30° C. with shaking, then 3 μCi ^14 C-acetate was added and continued to incubate for 1 hour. Cells were harvested by centrifugation and extracted with 2×0.5 ml methanol; centrifuged, decanted supernate and repeated the extraction with […] methanol-benzene (1:1). Centrifuged, decanted; combined supernates, dried and resuspended in 100 μl chloroform-methanol (1:1). The aliquots were spotted onto silica gel 60 (Merck) plates and developed chromatographically in a solvent containing dichloromethane-acetone (60:1). […]

T1 sequence (P10613 whole entry): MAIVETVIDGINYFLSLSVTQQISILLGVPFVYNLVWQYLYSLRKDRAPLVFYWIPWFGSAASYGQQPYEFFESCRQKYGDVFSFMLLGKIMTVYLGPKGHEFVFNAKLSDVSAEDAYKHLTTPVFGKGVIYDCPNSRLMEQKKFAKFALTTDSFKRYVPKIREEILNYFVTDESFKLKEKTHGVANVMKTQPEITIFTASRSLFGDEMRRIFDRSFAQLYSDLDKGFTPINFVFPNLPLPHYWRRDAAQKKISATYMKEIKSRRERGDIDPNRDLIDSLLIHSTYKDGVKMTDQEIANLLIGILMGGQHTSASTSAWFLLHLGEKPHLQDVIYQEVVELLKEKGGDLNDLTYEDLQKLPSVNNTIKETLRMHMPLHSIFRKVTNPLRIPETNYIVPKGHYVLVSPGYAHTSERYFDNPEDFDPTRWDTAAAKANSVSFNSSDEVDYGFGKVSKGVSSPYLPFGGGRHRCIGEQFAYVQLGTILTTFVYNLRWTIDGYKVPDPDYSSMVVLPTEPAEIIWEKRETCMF

SMILES: C/C=C/C=C/C=C(\C)[C@H]1OC[C@@H](C)[C@@H](OC)[C@@H]1OC(=O)CN (relative stereo) [Lanomycin]
- MIC (Candida parakrusei; SC2621, Candida parakrusei SC 2621): 12.5 µg/mL (≈ 40.4 µM)
- MIC (Candida parakrusei; SC2966, Candida parakrusei SC 2966): 25 µg/mL (≈ 80.8 µM)
- activity against certain strains of C. parakrusei (Candida parakrusei; in words, Table 5): good activity
- MIC (Candida tropicalis; SC2963, Candida tropicalis SC 2963): 25 µg/mL (≈ 80.8 µM)
- MIC (Candida tropicalis; SC8159, Candida tropicalis SC 8159): > 100 µg/mL
- MIC (Candida tropicalis; SC9861, Candida tropicalis SC 9861): 100 µg/mL (≈ 323 µM)
- MIC (Candida tropicalis; SC10597, Candida tropicalis SC 10597): 100 µg/mL (≈ 323 µM)
- MIC (Candida stellatoidea): 50 µg/mL (≈ 162 µM)
- MIC (Candida guillermondii; SC2210, Candida guillermondii SC 2210): 50 µg/mL (≈ 162 µM)
- MIC (Candida guillermondii; SC2996, Candida guillermondii SC 2996): 1.6 µg/mL (≈ 5.17 µM)
- activity against certain strains of C. guillermondii (Candida guillermondii; in words, Table 5): good activity
- MIC (Candida pseudotropicalis): 50 µg/mL (≈ 162 µM)
- MIC (Candida krusei; SC2967, Candida krusei SC 2967): 6.3 µg/mL (≈ 20.4 µM)
- MIC (Candida krusei; SC2968, Candida krusei SC 2968): 12.5 µg/mL (≈ 40.4 µM)
- MIC (Candida krusei; SC2969, Candida krusei SC 2969): 25 µg/mL (≈ 80.8 µM)
- activity against certain strains of C. krusei (Candida krusei; in words, Table 5): good activity
- MIC (Microsporum canis): 0.4 µg/mL (≈ 1.29 µM)
- MIC [1]: 0.4 µg/mL (≈ 1.29 µM)
- MIC (Trichophyton rubrum): 1.6 µg/mL (≈ 5.17 µM)
- MIC (Aspergillus fumigatus; SC2100, Aspergillus fumigatus SC 2100, 10^3 cfu): 100 µg/mL (≈ 323 µM)
- activity against Aspergillus fumigatus (Aspergillus fumigatus; in words, Table 6): inactive
- MIC (Epidermophyton floccosum): 0.4 µg/mL (≈ 1.29 µM)
- activity against Gram negative bacteria (Gram negative bacteria): not active
- activity against Gram positive bacteria (Gram positive bacteria): not active
- activity against dermatophytes (dermatophytes; Table 4): showed activity
- activity against dermatophytes (dermatophytes; Table 6): active

SMILES: CCC/C=C/C=C/C=C(\C)[C@H]1OC[C@@H](C)[C@@H](OC)[C@@H]1OC(=O)CN (relative stereo) [Scopularin, (2α, 3β, 4α, 5α)-Tetrahydro-4-methoxy-5-methyl-2-(1-methyl-1,3,5-nonatrienyl)-2H-pyran-3-ol, aminoacetate ester]
- concentration causing accumulation of lanosterol, consistent with inhibition of lanosterol demethylase [2]: 6.7×10^-7
